Reference: US11718628B2, “SREBP inhibitors comprising a 6-membered central ring” (Capulus Therapeutics, LLC, priority 2018, dated 2023)
In brackets after ≈: the same amount, converted by molar mass.

Legend:
[1] = Half-life in human liver microsomes; type: in vitro ADME; conditions: human, liver microsomes, NADPH, 37° C., read-out: G: half-life human liver microsomes
Description: (§1) Half-life Human Microsomes: Compounds were evaluated for stability in human liver microsomes. A 10 mM stock solution of the compound being evaluated was prepared in DMSO and diluted with water:acetonitrile (1:1) to a concentration of 1 mM. A working concentration of 100 μM was prepared by further dilution with water:acetonitrile (1:1). To make the preincubation mixture, 2.5 μL of the diluted compound was combined with 75 μL of human liver microsomes at 3.33 mg/mL, and 85 μL of 100 mM potassium phosphate buffer, and this mixture was pre-incubated for 10 min at 37° C. To make the 60 minute mixture without cofactor, 32.5 μL of the preincubation mixture was combined with 17.5 μL of 100 mM potassium phosphate buffer and incubated for 60 min at 37° C. To make the 0 min sample with cofactor (NADPH), 16.25 μL of the preincubation mixture was combined with 200 μL of acetonitrile containing internal standard and 8.75 μL of cofactor (NADPH). To make the incubation mixture, 62 μL of cofactor (2.85 mM) was combined with the remaining incubation mixture, and incubated for 60 min at 37° C. To prepare the sample mixture to be evaluated, 25 μL incubation mixture was combined with 200 μL of acetonitrile containing internal standard and vortexed for 5 min at 1200 rpm, then centrifuged for 10 min at 4000 rpm. The supernatant was diluted 2 fold with water and injected on LC-MS/MS. The sample mixture was evaluated by LC-MS/MS using 10 mM ammonium acetate with 0.1% FA as the aqueous mobile phase, and methanol as the organic mobile phase.

Kinetic solubility = type: physicochemical; conditions: aqueous buffer, kinetic from dmso stock, pH 7.4 buffer, room temperature, 1.0% DMSO, read-out: I: kinetic solubility class
Description: Kinetic Solubility Procedure: A 10 mM stock solution of a compound was prepared in DMSO, then 4 μL of the stock was added to a deep well plate containing 396 μL of pH 7.4 buffer. The sample plate was vortexed at 800 rpm for 24 h on thermomixer at room temperature. The plate was sealed well during the incubation process. The DMSO content in the sample was 1.0%. The concentration of the evaluated compound in the final incubation was 100 μM. At the end of the incubation period, the sample plate was centrifuged at 4000 rpm for 10 min and analyzed in LC-UV against a calibration curve (CC). Values <10 μg/mL=Low; 10 to 60 μg/mL=Medium; >60 μg/mL=High.

[2] = Half-life in mouse liver microsomes; type: in vitro ADME; conditions: mouse, liver microsomes, read-out: H: half-life of mouse liver microsomes
Description: as §1
Half-life Mouse Microsomes: Compounds were evaluated in mouse liver microsomes following a similar procedure as described above for human liver microsomes. A similar procedure could be used to evaluate compounds in rat liver microsomes.

CC(C)(C)c1cc(-c2cncc(-c3ccc(C(=O)N4CCC(O)CC4)cc3Cl)c2F)ccn1
half-life at 1 µM [1]: 9.52 min
solubility kinetic at 24 h (Kinetic solubility): 10 to 60 µg/mL (≈ 21.4 to 128 µM)
half-life at 1 µM [2]: 39.2 min

CC(C)(C)c1cc(-c2cncc(-c3ccc(NC(=O)OCCN4CCCC4)cc3Cl)c2)ccn1
half-life at 1 µM [1]: 53.2 min
solubility kinetic at 24 h (Kinetic solubility): 10 to 60 µg/mL (≈ 20.9 to 125 µM)
half-life at 1 µM [2]: 14.4 min

COc1ncc(-c2ccc(C(=O)N3CCC(O)CC3)cc2Cl)cc1-c1ccnc(C(C)(C)C)c1
half-life at 1 µM [1]: 16.1 min
solubility kinetic at 24 h (Kinetic solubility): 10 to 60 µg/mL (≈ 20.8 to 125 µM)
half-life at 1 µM [2]: 38.5 min

Cc1ncc(-c2ccc(C(=O)N3CCC(O)CC3)cc2Cl)cc1-c1ccnc(C(C)(C)C)c1
half-life at 1 µM [1]: 7.8 min
solubility kinetic at 24 h (Kinetic solubility): 10 to 60 µg/mL (≈ 21.6 to 129 µM)
half-life at 1 µM [2]: 41.7 min

O=C(c1ccc(-c2cncc(-c3ccnc(C4CC4)c3)c2)c(Cl)c1)N1CCC(F)C(O)C1 (stereo not drawn)
half-life at 1 µM [1]: 20.5 min
solubility kinetic at 24 h (Kinetic solubility): < 10 µg/mL
half-life at 1 µM [2]: 68.3 min

O=C(Nc1ccc(-c2cncc(-c3ccnc4c3OCCO4)c2)c(Cl)c1)OC1CC1
half-life at 1 µM [1]: 9.94 min
solubility kinetic at 24 h (Kinetic solubility): < 10 µg/mL
half-life at 1 µM [2]: 16.4 min

O=C(c1ccc(-c2cncc(-c3ccnc(C4CC4)c3)c2)c(Cl)c1)N1CCC(F)CC1
half-life at 1 µM [1]: 7.28 min
solubility kinetic at 24 h (Kinetic solubility): 10 to 60 µg/mL (≈ 22.9 to 138 µM)
half-life at 1 µM [2]: 12.4 min

O=C(c1ccc(-c2cncc(-c3ccnc(C4CC4)c3)c2)c(Cl)c1)N1CCC[C@H]1CO
half-life at 1 µM [1]: 16.2 min
solubility kinetic at 24 h (Kinetic solubility): 10 to 60 µg/mL (≈ 23 to 138 µM)
half-life at 1 µM [2]: 66.7 min

O=C(c1ccc(-c2cncc(-c3ccnc(C4CC4)c3)c2)c(Cl)c1)N1CC[C@H](O)C1
half-life at 1 µM [1]: 39.2 min
solubility kinetic at 24 h (Kinetic solubility): 10 to 60 µg/mL (≈ 23.8 to 143 µM)
half-life at 1 µM [2]: 87.2 min

O=C(c1ccc(-c2cncc(-c3ccnc(C4CC4)c3)c2)c(Cl)c1)N1CC2CCC(C1)C2O (stereo not drawn)
half-life at 1 µM [1]: 21.3 min
solubility kinetic at 24 h (Kinetic solubility): 10 to 60 µg/mL (≈ 21.7 to 130 µM)
half-life at 1 µM [2]: 42.4 min

CC(C)(C)c1cc(-c2cncc(-c3ccc(C(=O)N4CCC(O)C(O)CC4)cc3Cl)c2)ccn1 (stereo not drawn)
half-life at 1 µM [1]: 27.7 min
solubility kinetic at 24 h (Kinetic solubility): 10 to 60 µg/mL (≈ 20.8 to 125 µM)
half-life at 1 µM [2]: 120 min

CS(=O)(=O)Nc1ccc(-c2cncc(-c3ccnc4c3OCCO4)c2)c(Cl)c1
half-life at 1 µM [1]: 37.4 min
solubility kinetic at 24 h (Kinetic solubility): < 10 µg/mL
half-life at 1 µM [2]: 104 min

CC(C)OC(=O)Nc1ccc(-c2cncc(-c3ccnc(C(C)(C)O)c3)c2)c(Cl)c1
half-life at 1 µM [1]: 120 min
solubility kinetic at 24 h (Kinetic solubility): < 10 µg/mL
half-life at 1 µM [2]: 120 min

CC(C)(O)c1cc(-c2cncc(-c3ccc(NS(C)(=O)=O)cc3Cl)c2)ccn1
half-life at 1 µM [1]: 116 min
solubility kinetic at 24 h (Kinetic solubility): < 10 µg/mL
half-life at 1 µM [2]: 120 min

CC(C)OC(=O)Nc1ccc(-c2cncc(-c3ccnc(C4(F)CCC4)c3)c2)c(Cl)c1
half-life at 1 µM [1]: 55.9 min
solubility kinetic at 24 h (Kinetic solubility): < 10 µg/mL
half-life at 1 µM [2]: 97.9 min

CC(C)(CF)c1cc(-c2cncc(-c3ccc(C(=O)N4CCC(O)CC4)cc3Cl)c2)ccn1
half-life at 1 µM [1]: 41.3 min
solubility kinetic at 24 h (Kinetic solubility): 10 to 60 µg/mL (≈ 21.4 to 128 µM)
half-life at 1 µM [2]: 77.5 min

CC(C)(C)c1cc(-c2cncc(-c3ccc(C(=O)N4CCC(=O)C(F)C4)cc3Cl)c2)ccn1 (stereo not drawn)
half-life at 1 µM [1]: 11.2 min
solubility kinetic at 24 h (Kinetic solubility): 10 to 60 µg/mL (≈ 21.5 to 129 µM)
half-life at 1 µM [2]: 1.94 min

CC(C)(C)c1cc(-c2cncc(-c3ccc(C(=O)N4CCC[C@@H]4C(C)(C)O)cc3Cl)c2)ccn1
half-life at 1 µM [1]: 14 min
solubility kinetic at 24 h (Kinetic solubility): 10 to 60 µg/mL (≈ 20.9 to 126 µM)
half-life at 1 µM [2]: 64.3 min

CC(C)(C)c1cc(-c2cncc(-c3ccc(C(=O)N4CCC[C@H]4C(C)(C)O)cc3Cl)c2)ccn1
half-life at 1 µM [1]: 16.8 min
solubility kinetic at 24 h (Kinetic solubility): 10 to 60 µg/mL (≈ 20.9 to 126 µM)
half-life at 1 µM [2]: 27.4 min

CC(C)(C)c1cc(-c2cncc(-c3ccc(C(=O)N4CCC(O)C(F)C4)cc3Cl)c2)ccn1 (stereo not drawn)
half-life at 1 µM [1]: 120 min
solubility kinetic at 24 h (Kinetic solubility): 10 to 60 µg/mL (≈ 21.4 to 128 µM)
half-life at 1 µM [2]: 98.5 min

CC1CC(O)CC(C)N1C(=O)c1ccc(-c2cncc(-c3ccnc(C(C)(C)C)c3)c2)c(Cl)c1 (stereo not drawn)
half-life at 1 µM [1]: 6.33 min
solubility kinetic at 24 h (Kinetic solubility): 10 to 60 µg/mL (≈ 20.9 to 126 µM)
half-life at 1 µM [2]: 47.8 min

CC(C)(C)c1cc(-c2cncc(-c3ccc(C(=O)N4CCC(O)(O)C(F)(F)C4)cc3Cl)c2)ccn1
half-life at 1 µM [1]: 43.7 min
solubility kinetic at 24 h (Kinetic solubility): 10 to 60 µg/mL (≈ 19.9 to 120 µM)
half-life at 1 µM [2]: 32.5 min

O=C(c1ccc(-c2cncc(-c3ccnc(C4(O)CCC4)c3)c2)c(Cl)c1)N1CCC(O)CC1
half-life at 1 µM [1]: 76.7 min
solubility kinetic at 24 h (Kinetic solubility): 10 to 60 µg/mL (≈ 21.6 to 129 µM)
half-life at 1 µM [2]: 120 min

CC(C)(C)c1cc(-c2cncc(-c3ccc(C(=O)N(CCCO)CCCO)cc3Cl)c2)ccn1
half-life at 1 µM [1]: 9.51 min
solubility kinetic at 24 h (Kinetic solubility): 10 to 60 µg/mL (≈ 20.7 to 124 µM)
half-life at 1 µM [2]: 40.4 min

O=C(c1ccc(-c2cncc(-c3ccnc(C4(F)CCC4)c3)c2)c(Cl)c1)N1CCC(O)CC1
half-life at 1 µM [1]: 32.3 min
solubility kinetic at 24 h (Kinetic solubility): 10 to 60 µg/mL (≈ 21.5 to 129 µM)
half-life at 1 µM [2]: 54.4 min

CC(C)(C)c1cc(-c2cncc(-c3ccc(C(=O)N4CCC(O)C(F)(F)C4)cc3Cl)c2)ccn1 (stereo not drawn)
half-life at 1 µM [1]: 28.1 min
solubility kinetic at 24 h (Kinetic solubility): 10 to 60 µg/mL (≈ 20.6 to 123 µM)
half-life at 1 µM [2]: 88.6 min

CC(C)(C)c1cc(-c2cncc(-c3ccc(C(=O)N4CCC(F)C(O)C4)cc3Cl)c2)ccn1 (stereo not drawn)
half-life at 1 µM [1]: 12.2 min
solubility kinetic at 24 h (Kinetic solubility): 10 to 60 µg/mL (≈ 21.4 to 128 µM)
half-life at 1 µM [2]: 21.7 min

CC(C)(C)c1cc(-c2cncc(-c3ccc(C(=O)N4CCC4C(C)(C)O)cc3Cl)c2)ccn1 (stereo not drawn)
half-life at 1 µM [1]: 59 min
solubility kinetic at 24 h (Kinetic solubility): 10 to 60 µg/mL (≈ 21.6 to 129 µM)
half-life at 1 µM [2]: 38.3 min

CC(C)(C)c1cc(-c2cncc(-c3ccc(C(=O)N4CC(C(C)(C)O)C4)cc3Cl)c2)ccn1
half-life at 1 µM [1]: 7.35 min
solubility kinetic at 24 h (Kinetic solubility): 10 to 60 µg/mL (≈ 21.6 to 129 µM)
half-life at 1 µM [2]: 12.4 min

CS(=O)(=O)Nc1ccc(-c2cncc(-c3ccnc(C4CC4)c3)c2)c(Cl)c1
half-life at 1 µM [1]: 112 min
solubility kinetic at 24 h (Kinetic solubility): < 10 µg/mL
half-life at 1 µM [2]: 86.7 min

CC(C)OC(=O)Nc1ccc(-c2cncc(-c3ccnc(C4CC4)c3)c2)c(Cl)c1
half-life at 1 µM [1]: 120 min
solubility kinetic at 24 h (Kinetic solubility): < 10 µg/mL
half-life at 1 µM [2]: 81.1 min

CC(C)OC(=O)N(C)c1ccc(-c2cncc(-c3ccnc(C(C)(C)C)c3)c2)c(Cl)c1
half-life at 1 µM [1]: 63.6 min
solubility kinetic at 24 h (Kinetic solubility): < 10 µg/mL
half-life at 1 µM [2]: 105 min

CC(C)(C)c1cc(-c2cncc(-c3ccc(C(=O)N4CC5(CC(O)C5)C4)cc3Cl)c2)ccn1
half-life at 1 µM [1]: 1.79 min
solubility kinetic at 24 h (Kinetic solubility): 10 to 60 µg/mL (≈ 21.6 to 130 µM)
half-life at 1 µM [2]: 120 min

CC(C)(C)c1cc(-c2cncc(-c3ccc(C(=O)N4CCC[C@@H]4CO)cc3Cl)c2)ccn1
half-life at 1 µM [1]: 10.1 min
solubility kinetic at 24 h (Kinetic solubility): 10 to 60 µg/mL (≈ 22.2 to 133 µM)
half-life at 1 µM [2]: 32 min

CC(C)(C)c1cc(-c2cncc(-c3ccc(C(=O)N4CCC[C@H]4CO)cc3Cl)c2)ccn1
half-life at 1 µM [1]: 5.52 min
solubility kinetic at 24 h (Kinetic solubility): 10 to 60 µg/mL (≈ 22.2 to 133 µM)
half-life at 1 µM [2]: 28.6 min

CC1(O)CCN(C(=O)c2ccc(-c3cncc(-c4ccnc(C(C)(C)C)c4)c3)c(Cl)c2)C1 (stereo not drawn)
half-life at 1 µM [1]: 12.9 min
solubility kinetic at 24 h (Kinetic solubility): 10 to 60 µg/mL (≈ 22.2 to 133 µM)
half-life at 1 µM [2]: 28 min

CC(C)(C)c1cc(-c2cncc(-c3ccc(C(=O)N4CC[C@H](O)C4)cc3Cl)c2)ccn1
half-life at 1 µM [1]: 14.4 min
solubility kinetic at 24 h (Kinetic solubility): 10 to 60 µg/mL (≈ 22.9 to 138 µM)
half-life at 1 µM [2]: 38.7 min
